# From patent US6683054B1, “Use of melagatran” (AstraZeneca AB, priority 1999, dated 2004)
# Tested on: paw oedema
# Assay: Carrageenan-induced paw oedema in rats (foot volume by water plethysmograph)
# Assay type: in vivo, rat
# Conditions: for % Inhibition after sub-plantar injection, 2 hours after / % Inhibition after sub-plantar injection, 4 hours after: Table 1; for % Inhibition after sub-plantar injection, 2 hours after: 2 hours after carrageenan; for % Inhibition after sub-plantar injection, 4 hours after: 4 hours after carrageenan
# From the text: Groups of five male Charles River CD rats in the weight range 180 to 240 g were used. On their arrival, rats were housed in controlled environment rooms and fed a standard diet for at least one week before use.
# Rats were starved overnight before the test, although water was given ad libitum. A mark was made on the ankle joint of each rat, the day before the test, to indicate where the foot volume was to be measured.
# Compounds were made up in the appropriate vehicle for dosing via either the subcutaneous (s.c.), intravenous (i.v.) or oral (p.o.) routes. Melagatran was dosed in water (20 μmol/kg) when given p.o., and in saline, and in cyclodextrin (40%), when given s.c. (0.7 to 2 μmol/kg). Drugs were administered in a dose volume of 5 mL/kg body weight for p.o. dosing or 1 to 2 mL/kg body weight for s.c. dosing. Control rats received the equivalent volume of vehicle.
# A 1% solution of carrageenan in saline was prepared the day prior to the test. The carrageenan was suspended in saline and stirred vigorously on a magnetic stirrer for one hour. It was then stored at 4° C. until required. Thirty minutes after dosing, each rat was injected s.c. in the plantar region of the left hind foot with 0.1 mL of 1% carrageenan.
# To reduce both discomfort to the rat and variability in the test, rats were housed on wood chip bedding in solid bottom cages. The rats had access to a solution of 5% glucose throughout the duration of the test.
# The plethysmograph was calibrated using blocks of 2 mL and 4 mL mass before the first, and after the last, measurement at each time point.
# Foot volumes were measured before dosing and up to 6 hours after the sub-plantar injection of carrageenan. The increase in foot volume for each rat was calculated using the difference between the individual foot volume at time zero, and at the various time points. The inhibition afforded by a treatment was expressed as a percentage inhibition of the mean absolute increase in foot volume in treated animals compared to control animals. Indomethacin at 10 mg/kg p.o. was always included as an internal standard. If indomethacin gave less than 30% inhibition at 4 h then the test was considered invalid.
# [1] = Table 2, 2 μmol/kg s.c. in cyclodextrin
# [2] = Table 2, 20 μmol/kg p.o. in water
# [3] = Table 3, 2 μmol/kg s.c. in saline
# [4] = Table 4, 0.7 μmol/kg s.c. in saline
# [5] = Table 4, 1.4 μmol/kg s.c. in saline
# [6] = Table 4, 2.0 μmol/kg s.c. in saline
compound,measurement,setting,value
"COc1ccc2c(c1)c(CC(=O)O)c(C)n2C(=O)c1ccc(Cl)cc1 [Indomethacin, reference compound]","% Inhibition after sub-plantar injection, 2 hours after",10 mg/kg p.o.,43%
same,"% Inhibition after sub-plantar injection, 4 hours after",10 mg/kg p.o.,50%
same,% Inhibition after 1 hour,"Table 2, 10 mg/kg p.o.",−5%
same,% Inhibition after 2 hours,"Table 2, 10 mg/kg p.o.",50%
same,% Inhibition after 3 hours,"Table 2, 10 mg/kg p.o.",39%
same,% Inhibition after 4 hours,"Table 2, 10 mg/kg p.o.",12%
same,% Inhibition after 1 hour,"Table 3, 10 mg/kg p.o.",15%
same,% Inhibition after 2 hours,"Table 3, 10 mg/kg p.o.",2%
same,% Inhibition after 3 hours,"Table 3, 10 mg/kg p.o.",29%
same,% Inhibition after 4 hours,"Table 3, 10 mg/kg p.o.",18%
"CC(C)Cc1ccc(C(C)C(=O)O)cc1 (stereo not shown) [Ibuprofen, reference compound]","% Inhibition after sub-plantar injection, 2 hours after",10 mg/kg p.o.,22%
same,"% Inhibition after sub-plantar injection, 4 hours after",10 mg/kg p.o.,26%
"C[C@@H]1C[C@H]2[C@@H]3CCC4=CC(=O)C=C[C@]4(C)[C@@]3(F)[C@@H](O)C[C@]2(C)[C@@]1(O)C(=O)CO [Dexamethasone, reference compound]","% Inhibition after sub-plantar injection, 2 hours after",0.03 mg/kg p.o.,47%
same,"% Inhibition after sub-plantar injection, 4 hours after",0.03 mg/kg p.o.,74%
same,"% Inhibition after sub-plantar injection, 2 hours after",0.3 mg/kg p.o.,51%
same,"% Inhibition after sub-plantar injection, 4 hours after",0.3 mg/kg p.o.,96%
"N=C(N)c1ccc(CNC(=O)[C@@H]2CCN2C(=O)[C@H](NCC(=O)O)C2CCCCC2)cc1 [Melagatran, HOOC—CH2—(R)Cgl-Aze-Pab-H]",% Inhibition after 1 hour,[1],29%
same,% Inhibition after 2 hours,[1],13%
same,% Inhibition after 3 hours,[1],3%
same,% Inhibition after 4 hours,[1],13%
same,% Inhibition after 1 hour,[2],14%
same,% Inhibition after 2 hours,[2],17%
same,% Inhibition after 3 hours,[2],−14%
same,% Inhibition after 4 hours,[2],−2%
same,% Inhibition after 1 hour,[3],39%
same,% Inhibition after 2 hours,[3],8%
same,% Inhibition after 3 hours,[3],2%
same,% Inhibition after 4 hours,[3],−8%
same,% Inhibition after 1 hour,[4],39%
same,% Inhibition after 1.5 hours,[4],−1%
same,% Inhibition after 2 hours,[4],9%
same,% Inhibition after 3 hours,[4],16%
same,% Inhibition after 1 hour,[5],65%
same,% Inhibition after 1.5 hours,[5],40%
same,% Inhibition after 2 hours,[5],5%
same,% Inhibition after 3 hours,[5],7%
same,% Inhibition after 1 hour,[6],76%
same,% Inhibition after 1.5 hours,[6],41%
same,% Inhibition after 2 hours,[6],17%
same,% Inhibition after 3 hours,[6],19%
same,inhibition of the oedema,"in saline, 2 μmol/kg s.c., after 1 h",39%
same,"inhibition of paw oedema, dose and time dependence (in words)","in saline, 0.7, 1.4 and 2 μmol/kg s.c., 1 to 3 hours","inhibited paw oedema in both a dose dependent, and time dependent, manner"
same,inhibiting paw oedema (in words),"orally 20 μmol/kg in water, 30 minutes prior to carrageenan, up to 6 h post dosing",ineffective
